Assay results reported in patent US8273875B2, “High performance luminescent compounds” (University of Notre Dame du Lac, priority 2009, dated 2012).

Assay: Photobleaching of biotinylated fluorophores on avidin-coated magnetic particles, epifluorescent microscope
Format: physicochemical
Conditions: bound to 1.3 μm avidin-coated magnetic particles, constant excitation, images every 30 seconds
Experimental: FIG. 6 illustrates a photobleaching profile of biotinylated fluorophores, in accordance with various embodiments.
In one specific, non-limiting example, the photobleaching of commercially available biotin-4-carboxyfluorescein (CF-biotin), and biotin-squaraine rotaxane (SQR-biotin) was examined by measuring the half-life of each of the probes. The dyes were incubated in excess with 1.3 μm magnetic particles coated in avidin. Following the incubation, the particles were washed of any unbound fluorophore, and the samples were then imaged on an epifluorescent microscope. The samples remained under constant excitation and images were captured every 30 seconds. Using ImageJ software, a region of interest (ROI) was drawn around the imaged magnetic particles and the mean pixel intensity was measured for each image.

photobleaching profile (fluorescence intensity versus time): dramatic photobleaching
Substance: biotin-4-carboxyfluorescein [CF-biotin]
